These results are taken from patent publication US20240173419A1, “CDK2 DEGRADERS AND USES THEREOF” (Kymera Therapeutics, Inc., priority 2022, published 2024).

The experiment has as its target T1, CDK2 (Homo sapiens, UniProt P24941).
T1 construct: endogenous in cells; host or cells: MKN1 cells
Briefly: CDK2 degradation in MKN1 cells (AlphaLISA). Format: cell-based. The arrangement: key to CDK2 degradation 14 h: Mean external-Abs DC50 (nM): A (<100 nM); B (≥100-500 nM); C (>500-1000 nM); D (>1000 nM); E (not achieved). The conditions noted are these: 14 h incubation; for DC50: read-out: CDK2 degradation 14 h: Mean external-Abs DC50. As to the method:
Degradation of CDK2 in MKN1 cells was measured using AlphaLISA technology (PerkinElmer ALSU-TCDK2-A10K). MKN1 cells were maintained in RPMI1640 medium containing 10% FBS+1× penn/strep. Cells were seeded in 96-well plates (Corning 3599) at a density of 2e4 cells per well in 80 μL of fresh complete growth medium. Cells were incubated overnight at 37° C., 5% CO2. Compounds were then added to the cell assay plates with a final top concentration of 10 μM in a 1:5 dilution series with a total of 11 doses (0.001 nM-10 μM). The final volume per well was 160 μL and the final DMSO concentration was 0.1%. Additionally, wells containing no cells and only complete growth medium were also maintained on the cell assay plates (‘no cell’ wells) and processed along with experimental wells. After 14 hour-incubation at 37° C., 5% CO2, the medium was removed and the cells were washed once with 100 μL of 1×PBS. Following removal of PBS, 40 μL of 1× Lysis Buffer containing 1× protease and phosphatase inhibitors (Roche 4693116001; Roche 4906837001) were added to each well. The cell assay plate was agitated on a plate shaker at 350 rpm for 10 minutes at room temperature. 10 μL of each cell lysate were transferred to a 384-well plate (PerkinElmer 6007290). 10 μL of control lysates (from PerkinElmer ALSU-TCDK2-A10K kit) were added to separate wells to generate a standard curve. Activation Buffer was prepared by diluting 25-fold in combined Reaction Buffer 1 and Reaction Buffer 2. Acceptor Beads were diluted 50-fold in combined Reaction Buffers. 5 μL of Acceptor Mix were added to each well. The plate was sealed with Topseal-Aadhesive film, covered with foil, and incubated in the dark for 1 hour at room temperature. Under subdued light, the Donor Beads were diluted 50-fold in Dilution Buffer. 5 μL of Donor Mix were added to each well under subdued light. The plate was sealed with Topseal-A adhesive film, covered with foil, and incubated in the dark for 1 hour at room temperature. Under subdued light, the plates were analyzed on an EnVision Microplate Reader (PerkinElmer Model 2009-0030). The average signal from ‘no cell’ wells was subtracted from the signal in experimental wells prior to calculating Alpha signal for test compounds and negative control (0.100 DMSO). The data were analyzed using Xlfit (v5.3. 1.3) and the dose-dependent CDK2 degradation data were fit using a four-parameter logistic model to calculate DC50.

For orientation: DC50 means the concentration giving 50% degradation. With `Cc1cc(S(=O)(=O)C2CC3(CCN(CC4CCN(c5cccc(NC6CCC(=O)NC6=O)c5)CC4)CC3)C2)ccc1Nc1ncc2cc(Cl)c(=O)n(C3CCCC3)c2n1` (stereo not shown) [I-87], the “CDK2 degradation 14 h: Average Dmax %” value was “A (A (>75% o))” and the DC50 is less than 100 nM.
On the same counts, the results for `COc1ccc2c(c1N1CCC(CN3CCC4(CC3)CC(S(=O)(=O)c3ccc(Nc5ncc6cc(Cl)c(=O)n(C7CCCC7)c6n5)c(C)c3)C4)CC1)n(C)c(=O)n2C1CCC(=O)NC1=O` (stereo not shown) [I-88] are “A (A (>75% o))” and less than 100 nM.
The corresponding values for `Cc1cc(S(=O)(=O)C2CC3(CCN(CC4CCN(c5ccc(NC6CCC(=O)NC6=O)c(F)c5)CC4)CC3)C2)ccc1Nc1ncc2cc(Cl)c(=O)n(C3CCCC3)c2n1` (stereo not shown) [I-90] are “B (B (>50% -75%))” and 100 to 500 nM.
On the same counts, the results for `Cc1cc(S(=N)(=O)C2CC3(CCN(CC4CCN(c5cccc6c5n(C)c(=O)n6C5CCC(=O)NC5=O)CC4)CC3)C2)ccc1Nc1ncc2cc(Cl)c(=O)n(C3CCCC3)c2n1` (stereo not shown) [I-93] are “A (A (>75% o))” and less than 100 nM.
Consider `Cc1cc(S(=O)(=O)C2CC3(CCN(CC4CCN(c5cccc6c5n(C)c(=O)n6C5CCC(=O)NC5=O)CC4)CC3)C2)ccc1Nc1ncc(C(F)(F)F)c(C2CCC(C)(O)CC2)n1` (stereo not shown) [I-119], for which the “CDK2 degradation 14 h: Average Dmax %” value is reported as “A (A (>75% o))” and the DC50 is less than 100 nM.
As to `Cc1cc(S(=O)(=O)C2CC3(CCN(CC4CCN(c5ccc6c(c5F)n(C)c(=O)n6C5CCC(=O)NC5=O)CC4)CC3)C2)ccc1Nc1ncc2c(n1)N(C1CCCC1)C(=O)N(C)C2` (stereo not shown) [I-125], the “CDK2 degradation 14 h: Average Dmax %” value is listed as “A (A (>75% o))” and the DC50 is less than 100 nM.
On the same counts, the results for `Cc1cc(S(=O)(=O)C2CC3(CCN(CC4CCN(c5ccc6c(c5F)n(C)c(=O)n6C5CCC(=O)NC5=O)CC4)CC3)C2)ccc1Nc1ncc2cc(Cl)c(=O)n(C(C)C)c2n1` (stereo not shown) [I-128] are “A (A (>75% o))” and less than 100 nM.
With `Cc1cc(S(=O)(=O)C2CC3(CCN(CC4CCN(c5ccc6c(c5F)n(C)c(=O)n6C5CCC(=O)NC5=O)CC4)CC3)C2)ccc1Nc1ncc2cc(Cl)c(=O)n(C3CCOC3)c2n1` (stereo not shown) [I-129], the “CDK2 degradation 14 h: Average Dmax %” value is recorded as “C (C (>25% -50%))” and the “CDK2 degradation 14 h: Mean external-Abs DC50 (nM)” value is “E”.
Consider `Cc1cc(S(=O)(=O)C2CC3(CCN(CC4CCN(c5ccc6c(c5F)n(C)c(=O)n6C5CCC(=O)NC5=O)CC4)CC3)C2)ccc1Nc1ncc2cc(Cl)c(=O)n(C3CCOCC3)c2n1` (stereo not shown) [I-130], for which the “CDK2 degradation 14 h: Average Dmax %” value was “D (D (<25%))” and the DC50 was more than 1000 nM.
Take `Cc1cc(S(=O)(=O)C2CC3(CCN(CC4CCN(c5ccc(NC6CCC(=O)NC6=O)cc5F)CC4)CC3)C2)ccc1Nc1ncc2cc(Cl)c(=O)n(C3CCCC3)c2n1` (stereo not shown) [I-152]: the “CDK2 degradation 14 h: Average Dmax %” value is “B (B (>50% -75%))” and the half-maximal degradation concentration (DC50) was less than 100 nM.
On the same counts, the results for `Cc1cc(S(=O)(=O)N2CCC(C(F)(F)CN3CCN(c4cccc5c4n(C)c(=O)n5C4CCC(=O)NC4=O)CC3)CC2)ccc1Nc1ncc2cc(Cl)c(=O)n(C3CCCC3)c2n1` (stereo not shown) [I-163] are “B (B (>50% -75%))” and more than 1000 nM.
Take `Cc1cc(S(=O)(=O)N[C@H]2C[C@H](N3CCN(CC4CCN(c5ccc6c(c5)n(C)c(=O)n6C5CCC(=O)NC5=O)CC4)CC3)C2)ccc1Nc1ncc2cc(Cl)c(=O)n(C(C)C)c2n1` (stereo partly shown) [I-203]: the “CDK2 degradation 14 h: Average Dmax %” value is reported as “A (A (>75% o))” and the DC50 was less than 100 nM.
On the same counts, the results for `Cc1cc(S(=O)(=O)C2CC3(CCN(CC4CCN(c5ccc(NC6CCC(=O)NC6=O)c6ccccc56)CC4)CC3)C2)ccc1Nc1ncc2ccc(=O)n(C(C)C)c2n1` (stereo not shown) [I-206] are “B (B (>50% -75%))” and 100 to 500 nM.
For the compound `Cc1cc(S(=O)(=O)C2CC3(CCN(C(=O)COC4CN(c5ccc6c(c5F)n(C)c(=O)n6C5CCC(=O)NC5=O)C4)CC3)C2)ccc1Nc1ncc2ccc(=O)n(C3CCCC3)c2n1` (stereo not shown) [I-259], the “CDK2 degradation 14 h: Average Dmax %” value is recorded as “D (D (<25%))” and the DC50 is more than 1000 nM.
Regarding `Cc1cc(S(=O)(=O)N[C@H]2C[C@H](N3CCN(CC4CCN(c5ccc(NC6CCC(=O)NC6=O)cc5C)CC4)CC3)C2)ccc1Nc1ncc2ccc(=O)n(C3CCCC3)c2n1` (stereo partly shown) [I-276], the “CDK2 degradation 14 h: Average Dmax %” value is “A (A (>75% o))” and the 50% degradation concentration (DC50) is less than 100 nM.
As for `Cc1cc(S(=O)(=O)N2CCC(Cn3cnc4c3CCN(c3ccc5c(c3F)n(C)c(=O)n5C3CCC(=O)NC3=O)C4)CC2)ccc1Nc1ncc2ccc(=O)n(C3CCCC3)c2n1` (stereo not shown) [I-280], the “CDK2 degradation 14 h: Average Dmax %” value was “C (C (>25% -50%))” and the DC50 was more than 1000 nM.
The corresponding values for `Cc1cc(S(=O)(=O)C2CC3(CCN(CC4CCN(c5ccc6c(c5F)n(C)c(=O)n6C5CCC(=O)NC5=O)CC4)CC3)C2)ccc1Nc1ncc2cc(Cl)c(=O)n(C(C)C3CC3)c2n1` (stereo not shown) [I-285] are “A (A (>75% o))” and less than 100 nM.
In the case of `Cc1cc(S(=O)(=O)C2CC3(CCN(CC4CCN(c5ccc6c(c5F)n(C)c(=O)n6C5CCC(=O)NC5=O)CC4)CC3)C2)ccc1Nc1cc2c(ccc(=O)n2C2CCCC2)cn1` (stereo not shown) [I-286], the “CDK2 degradation 14 h: Average Dmax %” value was “A (A (>75% o))” and the DC50 is less than 100 nM.
Turning to `Cc1cc(S(=O)(=O)N2CCC(CCN3CCN(c4ccc5c(c4F)n(C)c(=O)n5C4CCC(=O)NC4=O)CC3)CC2)ccc1Nc1ncc2ccc(=O)n(C3CCCC3)c2n1` (stereo not shown) [I-287], the “CDK2 degradation 14 h: Average Dmax %” value is recorded as “A (A (>75% o))” and the DC50 was less than 100 nM.
The corresponding values for `Cc1cc(S(=O)(=O)C2CC3(CCN(CC4CCN(c5ccc6c(oc(=O)n6C6CCC(=O)NC6=O)c5F)CC4)CC3)C2)ccc1Nc1ncc2cc(Cl)c(=O)n(C3CCCC3)c2n1` (stereo not shown) [I-302] are “A (A (>75% o))” and less than 100 nM.
For `Cc1cc(S(=O)(=O)C2CC3(CCN(CC4CCN(c5cnc6c(c5)c(C)cn6C5CCC(=O)NC5=O)CC4)CC3)C2)ccc1Nc1ncc2cc(Cl)c(=O)n(C3CCCC3)c2n1` (stereo not shown) [I-305], the “CDK2 degradation 14 h: Average Dmax %” value is recorded as “A (A (>75% o))” and the 50% degradation concentration (DC50) lay within 100 to 500 nM.
In the case of `Cc1cc(S(=O)(=O)NCCOC2CCC(CN3CCN(c4ccc(NC5CCC(=O)NC5=O)cc4C)CC3)CC2)ccc1Nc1ncc2cc(Cl)c(=O)n(C3CCCC3)c2n1` (stereo not shown) [I-308], the “CDK2 degradation 14 h: Average Dmax %” value is given as “A (A (>75% o))” and the DC50 is less than 100 nM.
On the same counts, the results for `CCOc1cc(NC2CCC(=O)NC2=O)ccc1N1CCC(CN2CCC3(CC2)CC(S(=O)(=O)c2ccc(Nc4ncc5cc(Cl)c(=O)n(C6CCCC6)c5n4)c(C)c2)C3)CC1` (stereo not shown) [I-309] are “A (A (>75% o))” and 100 to 500 nM.
On the same counts, the results for `Cc1cc(S(=O)(=O)C2CC3(CCN(CC4CCN(c5ccc6c(N7CCC(=O)NC7=O)nn(C)c6c5F)CC4)CC3)C2)ccc1Nc1ncc2cc(Cl)c(=O)n(C3CCCC3)c2n1` [I-325] are “A (A (>75% o))” and less than 100 nM.
The corresponding values for `Cc1cc(S(=O)(=O)C2CC3(CCN(CC4CCN(c5ccc(NC6CCC(=O)NC6=O)c(Cl)c5)CC4)CC3)C2)ccc1Nc1ncc2cc(Cl)c(=O)n(C3CCCC3)c2n1` (stereo not shown) [I-329] are “A (A (>75% o))” and less than 100 nM.
Consider `Cc1cc(S(=O)(=O)C2CC3(CCN(CC4CCN(c5cccc(NC6CCC(=O)NC6=O)c5C)CC4)CC3)C2)ccc1Nc1ncc2cc(Cl)c(=O)n(C3CCCC3)c2n1` (stereo not shown) [I-332], for which the “CDK2 degradation 14 h: Average Dmax %” value is listed as “A (A (>75% o))” and the DC50 is 100 to 500 nM.
The corresponding values for `Cc1cc(S(=O)(=O)N2CCC(CN(C)C3CCN(c4cccc5c4n(C)c(=O)n5C4CCC(=O)NC4=O)CC3)CC2)ccc1Nc1ncc2cc(C(F)(F)F)c(=O)n(C3CCCC3)c2n1` (stereo not shown) [I-341] are “A (A (>75% o))” and less than 100 nM.
Turning to `Cc1cc(S(=O)(=O)N2CCC(CN(C)C3CCN(c4cccc5c4n(C)c(=O)n5C4CCC(=O)NC4=O)CC3)CC2)ccc1Nc1ncc2cc(F)c(=O)n(C3CCCC3)c2n1` (stereo not shown) [I-342], the “CDK2 degradation 14 h: Average Dmax %” value is “A (A (>75% o))” and the DC50 was less than 100 nM.
On the same counts, the results for `Cc1cc(S(=O)(=O)NC2CC3(CCN(CC4CCN(c5cccc6c5n(C)c(=O)n6C5CCC(=O)NC5=O)CC4)CC3)C2)ccc1Nc1ncc2cc(Cl)c(=O)n(C3CCCC3)c2n1` (stereo not shown) [I-347] are “A (A (>75% o))” and less than 100 nM.
